The results in this text go back to patent US8871280B1, “Compositions and methods for treating fungal activity in plants or soil” (The United States of America, as represented by the …, priority 2011, dated 2014).

Molecules are shown by their SMILES.

Data set [1] has as its system Rhizoctonia solani. Briefly: Filter disk fumigation method, mycelial growth inhibition on PDA. Particulars: for Fumig1 % inhibition: fumigation experiment 1; for Fumig2 % inhibition: fumigation experiment 2. The class given is cell-based, Rhizoctonia solani AG-4, isolate Rs 23A. On the procedure: (§1) Fungal isolate and preparation of inoculum: Rhizoctonia solani AG-4, isolate Rs 23A is a highly virulent pathogenic isolate which infects many vegetables, ornamentals and turfgrasses (Lewis, J. A., and G. C. Papavizas, Soil Biology and Biochemistry, 9:195-201 (1987)). The fungus was grown in potato dextrose agar (PDA) plates and fungal plugs from the freshly growing mycelium were mixed with moist sterilized cracked wheat in a 2 L flask for 15 days in dark at 22° C. (Lakshman, D. K., et al., Proceedings of the National Academy of Science, USA, 95: 6425-6429 (1998)). The infested wheat was air dried in a sterile hood for 3 days, blended in a homogenizer and sieved through a mesh and stored at 2° C. before soil inoculation. A dose response of the inocula was carried out by thoroughly mixing using 0.25, 0.5, 0.75, 1.0, 1.25 and 1.50 g inoculums per Kg dry weight potting soil plus sterile water to maintain 25-30% moisture and incubating at room temperature for two weeks before sowing cucumber (cv muncher) seeds with the infested soil. The percent germination and post-emergence damping off of cucumber seedlings were recorded. The lowest inoculums dose that induced 100% postemergence damping off was estimated to be 1 to 1.25 g/Kg soil for inocula prepared over the span of the experiments. For soil fumigation with plant extracts (PEs), each time the minimum inoculum dose giving rise to 100% damping off was used.
In the second protocol, the chemical was kept not in direct contact with the fungus and we hypothesized that the plant extract will most likely influence the growth of the pathogen by fumigation action. In this approach, three sterile 15 mm filter paper (Whatman International Ltd, Maidstone, UK) disks were placed on the edge of each of three plates on the PDA. Each disk was impregnated in the center with various amounts (5-50 ul/disk) of the test solution/suspension. For negative control, only soybean oil was placed in the filter disk. […] The average radial growth was calculated and the experiment was repeated one more time. Percent growth inhibition was calculated as reported for poison bed assay.

For data set [2], the system named is Rhizoctonia solani. Briefly: Poison food technique (contact action), mycelial growth inhibition in PDA. Particulars: for PoisonB1 % inhibition: poison bed experiment 1; for PoisonB2 % inhibition: poison bed experiment 2. The format is cell-based, Rhizoctonia solani AG-4, isolate Rs 23A. On the procedure:
as §1
In vitro bioassays: Two in vitro bioassay methods were used to investigate the mycelial growth inhibitory potentials of PEs. In the poison food technique, test chemical/plant extract was mixed at concentrations of 15, 30, 45, 60, 75, and 150 μl per 20 ml autoclaved PDA at 50° C., poured on three sterile disposable plastic plates (100×15 mm, Fisherbrand) at 20 ml/plate and cooled to room temperature to solidify (Dhingra, O.D., and J. B. Sinclair, 1995, Basic Plant Pathology Methods, 2nd Edition, Lewis Publishers, Boca Raton and London). […] Each plate was seeded in the center with a 5 mm diameter agar disk of the freshly grown Rhizoctonia pathogen, mycelial side facing the medium, and sealed with stretched Parafilm® M (Fisher Scientific). The plates were incubated in the dark at room temperature and when the pathogen reached to the edge of the plates in the control treatment (soybean oil), radial measurement of fungal growth in plates treated with PEs were recorded by taking three measurements from each plate. The experiment was repeated one more time. The percent mycelial growth inhibition (MGI) due to PE was calculated using the following formula: […] where dc=Avg. radial growth in mm of pathogen in control plate; dt=avg. radial growth in mm of pathogen in treated plate.

Data set [3] deals with Rhizoctonia solani. Briefly: Fungicidal vs fungistatic potential (regrowth of mycelial plugs on fresh PDA, 7 days). The format is cell-based, Rhizoctonia solani AG-4, isolate Rs 23A. The protocol:
The fungicidal and fungistatic potential of the PEs were determined by the method described by Garber and Houstan (Garber R. H., and B. R. Houston, Phytopathology, 49: 449-450 (1959)). In brief, three 5 mm diameter plugs were taken from the peripheral mycelial growth from each plate and placed in a fresh PDA plate. Following incubation at room temperature for 7 days, observations were recorded for new mycelial growth (fungistatic) or no mycelial growth (fungicidal). As control, peripheral mycelial plugs from soybean oil amended PDA plates were checked for fresh mycelial growth in fresh PDA plates.

For data set [4], the system named is Rhizoctonia solani. Briefly: Greenhouse suppression of damping off of cucumber seedlings in R. solani infested soil amended with plant extract. The format is in vivo, Rhizoctonia solani AG-4, isolate Rs 23A. To be noted: for % Disease suppression (+ PE + R. solani): cucumber damping off, soil amendment at 0.3% (v/w), four weeks after sowing.
The next data set deals with cucumber seeds. Briefly: Greenhouse assay of seed germination and phytotoxicity, soil treated with plant extract alone. To be noted: cucumber, in vivo, 0.3 % of PE in soil (3000 ppm). The protocol: Soil treatment: For each treatment, 300 g of dry greenhouse soli (Pro-mix, Premier Horticulture LTD, Red Hill, Pa.) was thoroughly mixed with Rhizoctonia inoculum and incubated for 15 days as described above. […] The infested soil treated with only the carrier solution served as an untreated control. Following the treatment, the soil was thoroughly stirred to mix the contents and incubated in a double polythene bag closed tightly in the dark at room temperature for four days for fumigation to occur. Following the incubation, the bag was opened to allow as much PE to dissipate as possible. This was done by sprinkling the surface soil with sterile water every other day, and stirring the soil once every day for seven days. For assay of effect on seed germination and phytotoxicity of the plant extracts, soil was treated with plant extract formulations alone.
Greenhouse studies: Treated soil from each treatment was distributed to 4-inch plastic pots into which 12 seeds of cucumbers (95-100% germination) were sown and lightly watered to keep soil moist. The treatments were color coded and pots were randomized across treatment. All plants were kept in a greenhouse between 20° C. (night) to 26° C. (day) with 14 h of light. There were three pots per treatment in each experiment, and the experiment was repeated three times. As positive control, a broad spectrum popular soil fungicide Banrot® 40 WP (The Scotts Company, Ohio) was used following manufacturer's recommendation to control the disease. Total number of seedlings without any sign of damping off in each pot was recorded and percentage of disease suppression were calculated four weeks after sowing cucumber seeds.

With `C=CC(C)(O)CCC=C(C)CCC=C(C)C` (mixture of isomers) [Nerolidol], the Fumig1 % inhibition in the data set with Rhizoctonia solani [1] (amount oil 15 μL/20 mL plate), in the data set with Rhizoctonia solani [1] (amount oil 30 μL/20 mL plate), with Rhizoctonia solani [1] (amount oil 45 μL/20 mL plate), in the data set on Rhizoctonia solani [1] (amount oil 60 μL/20 mL plate), in the data set on Rhizoctonia solani [1] (amount oil 75 μL/20 mL plate) and in the data set with Rhizoctonia solani [1] (amount oil 150 μL/20 mL plate) was 0% throughout. For the same molecule, the Fumig2 % inhibition with Rhizoctonia solani [1] (amount oil 15 μL/20 mL plate) was 0%; in the data set on Rhizoctonia solani [1] (amount oil 30 μL/20 mL plate) it was 40%; in the data set with Rhizoctonia solani [1] (amount oil 45 μL/20 mL plate), 42%; in the data set on Rhizoctonia solani [1] (amount oil 60 μL/20 mL plate), 41%; with Rhizoctonia solani [1] (amount oil 75 μL/20 mL plate), 42%; in the data set on Rhizoctonia solani [1] (amount oil 150 μL/20 mL plate), 41%. In addition, the PoisonB1 % inhibition was 71% with Rhizoctonia solani [2] (amount oil 15 μL/20 mL plate); 78% in the data set on Rhizoctonia solani [2] (amount oil 30 μL/20 mL plate); 83% in the data set with Rhizoctonia solani [2] (amount oil 45 μL/20 mL plate); 84% with Rhizoctonia solani [2] (amount oil 60 μL/20 mL plate); 87% in the data set on Rhizoctonia solani [2] (amount oil 75 μL/20 mL plate); 89% in the data set on Rhizoctonia solani [2] (amount oil 150 μL/20 mL plate). The PoisonB2 % inhibition with Rhizoctonia solani [2] (amount oil 15 μL/20 mL plate) was found to be 78%; in the data set with Rhizoctonia solani [2] (amount oil 30 μL/20 mL plate) it was 81%; in the data set on Rhizoctonia solani [2] (amount oil 45 μL/20 mL plate), 87%; with Rhizoctonia solani [2] (amount oil 60 μL/20 mL plate), 90%; in the data set on Rhizoctonia solani [2] (amount oil 75 μL/20 mL plate) it was 92%; in the data set on Rhizoctonia solani [2] (amount oil 150 μL/20 mL plate) it was 99%. The “Effect (fumigation)” value with Rhizoctonia solani [3] (amount oil 15 μL/20 mL plate), with Rhizoctonia solani [3] (amount oil 30 μL/20 mL plate), with Rhizoctonia solani [3] (amount oil 45 μL/20 mL plate), in the data set on Rhizoctonia solani [3] (amount oil 60 μL/20 mL plate), in the data set on Rhizoctonia solani [3] (amount oil 75 μL/20 mL plate) and in the data set on Rhizoctonia solani [3] (amount oil 150 μL/20 mL plate) was “S” throughout. Also, the “Effect (poison bed, contact action)” value in the data set on Rhizoctonia solani [3] (amount oil 15 μL/20 mL plate), in the data set with Rhizoctonia solani [3] (amount oil 30 μL/20 mL plate), in the data set with Rhizoctonia solani [3] (amount oil 45 μL/20 mL plate), with Rhizoctonia solani [3] (amount oil 60 μL/20 mL plate), in the data set on Rhizoctonia solani [3] (amount oil 75 μL/20 mL plate) and with Rhizoctonia solani [3] (amount oil 150 μL/20 mL plate) was “S” each time.

`C=CCN=C=S` [Allyisothiocynate]: the “Inhibition of R. solani growth by fumigation action, in words” value in the data set on Rhizoctonia solani [1] (in vitro, filter disk) was “potent inhibitors”. Moreover, in the data set with Rhizoctonia solani [2] (in vitro, PDA), the “Inhibition of R. solani growth by contact (poison bed assay), in words” value was “potent inhibitors”. Further, the “Fungicidal vs fungistatic nature at all concentrations tested” value with Rhizoctonia solani [3] (in vitro, fumigation and contact, all concentrations tested) is “fungicidal”. In the data set on Rhizoctonia solani [4], the “% Disease suppression (+ PE + R. solani)” value worked out at 88.92%.

On to `C=CCN=C=S` [Allylisothiocyanate], for which the Fumig1 % inhibition in the data set on Rhizoctonia solani [1] (amount oil 15 μL/20 mL plate), with Rhizoctonia solani [1] (amount oil 30 μL/20 mL plate), with Rhizoctonia solani [1] (amount oil 45 μL/20 mL plate), with Rhizoctonia solani [1] (amount oil 60 μL/20 mL plate), in the data set with Rhizoctonia solani [1] (amount oil 75 μL/20 mL plate) and in the data set with Rhizoctonia solani [1] (amount oil 150 μL/20 mL plate) was 100% each time. The Fumig2 % inhibition in the data set on Rhizoctonia solani [1] (amount oil 15 μL/20 mL plate), with Rhizoctonia solani [1] (amount oil 30 μL/20 mL plate), in the data set with Rhizoctonia solani [1] (amount oil 45 μL/20 mL plate), in the data set on Rhizoctonia solani [1] (amount oil 60 μL/20 mL plate), in the data set on Rhizoctonia solani [1] (amount oil 75 μL/20 mL plate) and in the data set with Rhizoctonia solani [1] (amount oil 150 μL/20 mL plate) was 100% throughout. The PoisonB1 % inhibition in the data set on Rhizoctonia solani [2] (amount oil 15 μL/20 mL plate), in the data set with Rhizoctonia solani [2] (amount oil 30 μL/20 mL plate), in the data set on Rhizoctonia solani [2] (amount oil 45 μL/20 mL plate), in the data set on Rhizoctonia solani [2] (amount oil 60 μL/20 mL plate), with Rhizoctonia solani [2] (amount oil 75 μL/20 mL plate) and in the data set with Rhizoctonia solani [2] (amount oil 150 μL/20 mL plate) was 100% throughout. Moreover, the PoisonB2 % inhibition in the data set with Rhizoctonia solani [2] (amount oil 15 μL/20 mL plate), in the data set on Rhizoctonia solani [2] (amount oil 30 μL/20 mL plate), with Rhizoctonia solani [2] (amount oil 45 μL/20 mL plate), in the data set with Rhizoctonia solani [2] (amount oil 60 μL/20 mL plate), in the data set on Rhizoctonia solani [2] (amount oil 75 μL/20 mL plate) and with Rhizoctonia solani [2] (amount oil 150 μL/20 mL plate) was 100% in each case.

In the case of `C=CCc1ccc(O)c(OC)c1` [Eugenol], the “% Disease suppression (+ PE + R. solani)” value in the data set on Rhizoctonia solani [4] is given as 44.42%. The “Avg. seed Germination (+ PE + R. solani)” value in the data set with Rhizoctonia solani [4] (cucumber, 12 seeds sown per pot, infested soil amended with 0.3% PE) is 5.33. In the data set on cucumber seeds, the “Avg. seed germination (+ PE only)” value came to 10.00.
